{
  "source": "paper PMC12616682",
  "about": "“Identification of a Highly Cooperative PROTAC Degrader Targeting GTP-Loaded KRAS(On) Alleles” (Journal of the American Chemical Society, 2025)",
  "key": {"[1]": {"test_system": "HiBiT-tagged KRAS mutants in GP5d cells", "assay": "Degradation of retrovirally transduced HiBiT-tagged KRAS mutants in GP5d cells", "type": "cell-based, human", "details": "18 h"}, "[2]": {"target": "T1, HiBiT-KRAS^G12D in GP5d cells (Homo sapiens, UniProt P01116, G12D)", "T1 construct": "host or cells: GP5d HiBiT KRAS G12D", "assay": "HiBiT degradation assay, HiBiT-KRAS^G12D GP5d cells", "type": "cell-based", "details": "Gp5D (HiBit-G12D)"}, "[3]": {"test_system": "A375 cells", "assay": "CellTiter-Glo anti-proliferation, A375 (KRAS independent)", "type": "cell-based, human"}, "[4]": {"target": "T2, HiBiT-KRAS^G12R in Cal-62 cells (Homo sapiens, UniProt P01116, G12R)", "T2 construct": "generated a HiBiT-KRAS^G12R Cal-62 knock-in cell line using the CRISPR Cas9 technology; endogenous in cells; host or cells: Cal-62 HiBiT KRAS G12R (in-house CRISPR knock-in)", "assay": "HiBiT degradation assay, HiBiT-KRAS^G12R Cal-62 cells", "type": "cell-based", "details": "Cal-62 (HiBitG12R)", "procedure": "(Gibco) with 10% FBS in a humidiﬁed cell incubator at 37 °C and 5% CO2.\nPlasmids pSpCas9 BB-2A-GFP (PX458) containing gRNA, Cas9 and GFP sequences and […] plasmid containing ssDNA donor template were purchased from Genscript. Cal-62 cells were plated at 5x10^5 cells in a 6-well plate and left to adhere overnight. The next day, the transfection plasmids (0.5 µg of each gRNA plasmid and 0.5 µg of donor template) were diluted in Opti-MEM, combined with Lipofectamine solution in Opti-mem according to the manufacturer’s protocol and incubated for 20 min at RT. The mixture was added to the cells and incubated for 24 h. The next day the media was exchanged, and the cells were left to incubate for another 24 h. GFP positive cells were single-cell sorted into 96-well plates using ﬂuorescence-activated cell sorting (FACS) at the Flow Cytometry and Cell Sorting Facility (University of Dundee). Sorted cells were left to grow in conditioned media supplemented with 20% FBS for 3 weeks. Formed colonies were tested for the expression of HiBiT KRAS using the Nano-Glo® HiBiT Lytic system (Promega). The positive clones were additionally tested for insertion of the HiBiT tag by western blotting for KRAS (mouse anti-KRAS, LsBio) and HiBiT (mouse anti-HiBiT, Promega) and the insert was further conﬁrmed by Sanger sequencing. […]\ngRNA1: 5’ […] 3’, gRNA2: 5’ […] 3’, gRNA 3: 5’ […]\ntemplate DNA: 5’ caatccagctt tatttgacac tcattctctc aactctcatc tgattcttac tgttaatatt tatccaagag aactactgcc atgatgcttt aaaagttttt ctgtagctgt tgcatattga cttctaacac ttagaggtgg gggtccacta ggaaaactgt aacaataaga gtggagatag ctgtcagcaa cttttgtgag ggtgtgctac agggtgtaga gcactgtgaa gtctctacat gagtgaagtc atgatatgat cctttgagag cctttagccg ccgcagaaca gcagtctggc tatttagata gaacaacttg attttaagat aaaagaactg tctatgtagc atttatgcat ttttcttaag cgtcgatgga ggagtttgta aatgaagtac agttcattac gatacacgtc tgcagtcaac tggaattttc atgattgaat tttgtaaggt attttgaaat aatttttcat ataaaggtga gtttgtatta aaaggtactg gtggagtatt tgatagtgta ttaaccttat gtgtgacatg ttctaatata gtcacatttt cattattttt attataaggc ctgctgaaa […]\natg[…]act gaGtaCaaGctCgtAgtagttggag ctCgtggc gta ggc aag agt gcc ttA acAatCcaActaattcagaatcat tttgtggacg aatatgatcc aacaatagag gtaaatcttg ttttaatatg catattactg gtgcaggacc attctttgat acagataaag gtttctctga ccattttcat gagtacttat tacaagataa ttatgctgaa agttaagtta tctgaaatgt accttgggtt tcaagttata tgtaaccatt aatatgggaa ctttactttc cttgggagta tgtcagggtc catgatgttc actctctgtg cattttgatt ggaagtgtat ttcagagttt cgtgagaggg tagaaatttg tatcctatct ggacctaaaa gacaatcttt ttattgtaac ttttattttt atgggtttct tggtattgtg acatcatatg taaaggttag atttaattgt actagtgaaa tataattgtt tgatggttga tttttttaaa cttcatcagc agtattttcc tatcttcttc tcaacattag agaacctaca actaccggat aaattttaca aaatgaatta tttgcctaag gtgtggttta tataaaggta ctattaccaa ctttaccttt gctttgttgt catttttaaa tttactcaag gaaatactag gatttaaaaa aaaattcctt 3’\nDegradation via Detection of Split Nanoluciferase (HiBiT)\nTo assess PROTAC-mediated degradation of HiBiT-tagged KRAS constructs, cells were seeded at […]\nfurther incubated at 37 °C for 4 and 24 h. Following incubation, 20 µL per well of Promega Nano-Glo® HiBiT lytic detection reagent mix (Promega Nano-Glo® HiBiT Lytic Detection System […]\nplotted as percent of DMSO control."}, "[5]": {"target": "T3, KRAS^Q61L in SW948 cells (Homo sapiens, UniProt P01116, Q61L)", "T3 construct": "host or cells: SW948", "assay": "Endogenous KRAS degradation by Western blot in SW948 cells", "type": "cell-based"}, "[6]": {"target": "HRAS in Cal-62 cells (Homo sapiens, UniProt P01112)", "sequence (P01112 whole entry)": "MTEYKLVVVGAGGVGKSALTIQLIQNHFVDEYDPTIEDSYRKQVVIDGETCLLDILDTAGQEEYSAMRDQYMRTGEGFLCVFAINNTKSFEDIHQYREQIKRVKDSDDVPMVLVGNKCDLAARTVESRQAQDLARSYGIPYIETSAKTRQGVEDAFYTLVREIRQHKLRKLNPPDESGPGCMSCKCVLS", "assay": "Western blot of HRAS levels in Cal-62 cells"}, "[7]": {"test_system": "Cal-62 cells", "assay": "Whole cell proteomics MS analysis of Cal-62 cells", "type": "cell-based, human", "details": "1 µM, 6 h, FDR<0.05"}, "[8]": {"test_system": "Cal-62 cells", "assay": "CellTiter-Glo anti-proliferation, Cal-62", "type": "cell-based, human", "details": "Homo sapiens, 72 h; Cal-62 (G12R); read-out: CTG 72h Ic50"}, "[9]": {"target": "T4, KRAS^Q61K in Calu-6 cells (Homo sapiens, UniProt P01116, Q61K)", "T4 construct": "host or cells: Calu-6", "assay": "Endogenous KRAS degradation by Western blot in Calu-6 cells", "type": "cell-based", "details": "Calu-6 (Q61K)"}, "[10]": {"target": "T5, KRAS^G12D in GP5d cells (Homo sapiens, UniProt P01116, G12D)", "T5 construct": "comparison of the degradative effect on endogenous KRAS; host or cells: GP5d", "assay": "Endogenous KRAS degradation by Western blot in GP5d cells", "type": "cell-based"}, "[11]": {"target": "NRAS in Cal-62 cells (Homo sapiens, UniProt P01111)", "sequence (P01111 whole entry)": "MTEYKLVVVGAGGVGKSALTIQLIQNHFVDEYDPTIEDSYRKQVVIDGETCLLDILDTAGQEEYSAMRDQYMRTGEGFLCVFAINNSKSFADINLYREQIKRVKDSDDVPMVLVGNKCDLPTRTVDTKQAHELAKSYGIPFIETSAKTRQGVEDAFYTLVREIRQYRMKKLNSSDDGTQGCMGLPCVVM", "assay": "Western blot of NRAS levels in Cal-62 cells"}, "[12]": {"target": "T2, HiBiT-KRAS^G12R in Cal-62 cells", "assay": "Kinetic degradation (live mode), Cal-62 HiBiT KRAS^G12R cells", "type": "cell-based", "details": "Cal62-HiBit (G12R)"}},
  "note": "pIC50: −log10 of the molar value. Entries after “also recorded” stand apart in the source; their conditions may differ. Where two headings read alike, the source gives them in different places.",
  "data": [
    {"smiles": "CC(C)C(C(=O)N1CC(O)CC1C(=O)NCc1ccc2cnn(C)c2c1)n1nnc2c1CCC(CCCN1CCCN(c3nccc(-c4noc(C5(C)CCCc6sc(N)c(C#N)c65)n4)n3)C(C)C1)C2", "note": "(stereo not drawn) [ACBI4]", "values": [
      {"measurement": "degradation of HiBiT-tagged KRAS mutant panel (in words)", "setting": "[1]", "result": "induce the degradation of all KRAS alleles"},
      {"measurement": "Dmax", "setting": "[2]; 4 h, read-out: DMax 4h", "result": 84, "unit": "%"},
      {"measurement": "DC50", "setting": "[2]; 4 h, read-out: Dc50 4h", "result": 9, "unit": "nM"},
      {"measurement": "Dmax", "setting": "[2]; 24 h, read-out: DMax 24h", "result": 93, "unit": "%"},
      {"measurement": "DC50", "setting": "[2]; 24 h, read-out: Dc50 24h", "result": 2, "unit": "nM"},
      {"measurement": "pIC50", "setting": "[3]; Homo sapiens, A-375, 144 h, A375 (KRAS WT; KRAS independent), read-out: CTG 144h Ic50", "result": "< 5.52"},
      {"measurement": "antiproliferative effect (in words)", "setting": "[3]; KRAS-independent A375 cell line", "result": "No antiproliferation; also recorded: No antiproliferative effect was observed"},
      {"measurement": "Dmax", "setting": "[4]; 4 h, read-out: DMax 4h", "result": 80, "unit": "%"},
      {"measurement": "DC50", "setting": "[4]; 4 h, read-out: Dc50 4h", "result": 80, "unit": "nM"},
      {"measurement": "Dmax", "setting": "[4]; 24 h, read-out: DMax 24h", "result": 87, "unit": "%"},
      {"measurement": "DC50", "setting": "[4]; 24 h, read-out: Dc50 24h", "result": 205, "unit": "nM"},
      {"measurement": "Dmax", "setting": "[5]; 4 h, read-out: DMax 4h", "result": 58, "unit": "%"},
      {"measurement": "DC50", "setting": "[5]; 4 h, read-out: Dc50 4h", "result": 300, "unit": "nM"},
      {"measurement": "Dmax", "setting": "[5]; 18 h, read-out: DMax 18h", "result": 65, "unit": "%"},
      {"measurement": "DC50", "setting": "[5]; 18 h, read-out: Dc50 18h", "result": 1000, "unit": "nM"},
      {"measurement": "Dmax", "setting": "[6]; CAL-62, read-out: HRAS Dmax", "result": 72, "unit": "%"},
      {"measurement": "window of HRAS degradation over KRAS degradation", "setting": "[6]; Cal-62, DC50 637 nM vs 382 nM", "result": "ca. 2 fold"},
      {"measurement": "DC50", "setting": "[6]; read-out: HRAS DC50, Cal-62 cells, 4 h, Western blot", "result": 637, "unit": "nM"},
      {"measurement": "Log2 Difference CDKN1C", "setting": "[7]; ACBI4/DMSO", "result": 1.09},
      {"measurement": "Log2 Difference FOSL1", "setting": "[7]; ACBI4/DMSO", "result": -0.93},
      {"measurement": "Log2 Difference G0S2", "setting": "[7]; ACBI4/DMSO", "result": -1.35},
      {"measurement": "Log2 Difference KRAS", "setting": "[7]; ACBI4/DMSO", "result": -0.94},
      {"measurement": "Log2 Difference NRAS", "setting": "[7]; ACBI4/DMSO", "result": -1.86},
      {"measurement": "Log2 Difference RHOB", "setting": "[7]; ACBI4/DMSO", "result": 2.12},
      {"measurement": "Log2 Difference CDKN1C", "setting": "[7]; ACBI4/Neg Ctr", "result": 1.24},
      {"measurement": "Log2 Difference FOSL1", "setting": "[7]; ACBI4/Neg Ctr", "result": -0.7},
      {"measurement": "Log2 Difference G0S2", "setting": "[7]; ACBI4/Neg Ctr", "result": -1.11},
      {"measurement": "Log2 Difference KRAS", "setting": "[7]; ACBI4/Neg Ctr", "result": -0.79},
      {"measurement": "Log2 Difference NRAS", "setting": "[7]; ACBI4/Neg Ctr", "result": -1.48},
      {"measurement": "Log2 Difference PLAU", "setting": "[7]; ACBI4/Neg Ctr", "result": -0.73},
      {"measurement": "Log2 Difference RHOB", "setting": "[7]; ACBI4/Neg Ctr", "result": 2.07},
      {"measurement": "Log2 Difference TSPYL4", "setting": "[7]; ACBI4/Neg Ctr", "result": 0.96},
      {"measurement": "pIC50", "setting": "[8]", "result": 6.76},
      {"measurement": "Dmax", "setting": "[9]; 4 h, read-out: DMax 4h", "result": 34, "unit": "%"},
      {"measurement": "DC50", "setting": "[9]; 4 h, read-out: Dc50 4h", "result": 274, "unit": "nM"},
      {"measurement": "Dmax", "setting": "[9]; 18 h, read-out: DMax 18h", "result": 68, "unit": "%"},
      {"measurement": "DC50", "setting": "[9]; 18 h, read-out: Dc50 18h", "result": 157, "unit": "nM"},
      {"measurement": "Dmax", "setting": "[10]; 4 h, read-out: DMax 4h", "result": 96.5, "unit": "%"},
      {"measurement": "DC50", "setting": "[10]; 4 h, read-out: Dc50 4h", "result": 7, "unit": "nM"},
      {"measurement": "Dmax", "setting": "[10]; 18 h, read-out: DMax 18h", "result": 99, "unit": "%"},
      {"measurement": "DC50", "setting": "[10]; 18 h, read-out: Dc50 18h", "result": 7, "unit": "nM"},
      {"measurement": "NRAS degradation", "setting": "[11]", "result": "degradation of NRAS only at very high concentrations"},
      {"measurement": "1/K (Tau)", "setting": "[12]", "result": 0.689, "unit": "µM"},
      {"measurement": "Plateau (degradation rate)", "setting": "[12]", "result": 0.2774, "unit": "min⁻¹"},
      {"measurement": "Plateu/ Tau", "setting": "[12]", "result": 6708, "unit": "M⁻¹ s⁻¹"}
    ]}
  ]
}
